This is an account of results in ChEMBL document CHEMBL5390264, “Exploring Fatty Acid Mimetics as NR4A Ligands” (J Med Chem, 2023).

What all share (type): cell-based
Test [1] deals with T1, Peroxisome proliferator-activated receptor alpha (Homo sapiens) (UniProt Q07869).
T1 sequence (whole entry): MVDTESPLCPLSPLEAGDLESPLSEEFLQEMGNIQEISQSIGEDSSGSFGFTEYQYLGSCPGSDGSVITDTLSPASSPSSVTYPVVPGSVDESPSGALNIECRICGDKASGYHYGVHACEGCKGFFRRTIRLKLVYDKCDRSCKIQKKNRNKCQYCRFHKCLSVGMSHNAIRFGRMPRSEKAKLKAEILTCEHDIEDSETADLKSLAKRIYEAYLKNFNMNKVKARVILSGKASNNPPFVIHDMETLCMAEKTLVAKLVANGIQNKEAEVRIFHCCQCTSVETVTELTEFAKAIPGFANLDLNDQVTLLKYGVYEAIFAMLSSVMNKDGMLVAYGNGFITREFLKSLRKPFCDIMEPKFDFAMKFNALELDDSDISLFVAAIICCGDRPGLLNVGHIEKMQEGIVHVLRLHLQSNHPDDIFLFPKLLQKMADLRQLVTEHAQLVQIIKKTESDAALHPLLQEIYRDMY
Kind of test: Agonist activity at PPARalpha LBD (unknown origin) transiently transfected in HEK293T cells at 1 uM incubated for 16 hrs by Gal4-hybrid reporter gene based Dual-glo luciferase assay. Background: A reporter such as luciferase makes a cellular process visible.

Test [2] concerns the target T2, Peroxisome proliferator-activated receptor delta (Homo sapiens) (UniProt Q03181).
T2 sequence (whole entry): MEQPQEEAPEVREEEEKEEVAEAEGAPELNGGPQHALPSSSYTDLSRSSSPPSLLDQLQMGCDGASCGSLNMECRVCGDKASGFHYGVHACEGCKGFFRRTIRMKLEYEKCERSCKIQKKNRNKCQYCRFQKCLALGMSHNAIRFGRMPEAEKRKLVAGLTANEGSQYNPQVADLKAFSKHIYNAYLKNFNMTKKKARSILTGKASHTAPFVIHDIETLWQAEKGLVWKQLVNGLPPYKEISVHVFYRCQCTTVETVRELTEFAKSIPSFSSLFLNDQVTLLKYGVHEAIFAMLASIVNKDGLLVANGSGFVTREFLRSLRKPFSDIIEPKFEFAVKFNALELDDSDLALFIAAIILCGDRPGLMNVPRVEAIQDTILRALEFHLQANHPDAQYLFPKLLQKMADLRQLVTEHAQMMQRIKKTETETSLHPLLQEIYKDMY
The test can be described thus: Agonist activity at PPARdelta LBD (unknown origin) transiently transfected in HEK293T cells at 1 uM incubated for 16 hrs by Gal4-hybrid reporter gene based Dual-glo luciferase assay.

The nature of test [3]: Selectivity ratio for agonist activity at PPARgamma LBD (unknown origin) transiently transfected in HEK293T cells to agonist activity at human Nurr1 LBD transiently transfected in HEK293T cells.
Test [4] in a line: Selectivity ratio for agonist activity at PPARdelta LBD (unknown origin) transiently transfected in HEK293T cells to agonist activity at human Nurr1 LBD transiently transfected in HEK293T cells.
Test [5] can be described thus: Selectivity ratio for agonist activity at VDR LBD (unknown origin) transiently transfected in HEK293T cells to agonist activity at human Nurr1 LBD transiently transfected in HEK293T cells.
A short description of test [6]: Selectivity ratio for agonist activity at THRalpha LBD (unknown origin) transiently transfected in HEK293T cells to agonist activity at human NOR-1 LBD transiently transfected in HEK293T cells.
A short description of test [7]: Selectivity ratio for agonist activity at PPARdelta LBD (unknown origin) transiently transfected in HEK293T cells to agonist activity at human NOR-1 LBD transiently transfected in HEK293T cells.
A short description of test [8]: Selectivity ratio for agonist activity at FXR LBD (unknown origin) transiently transfected in HEK293T cells to agonist activity at human NOR-1 LBD transiently transfected in HEK293T cells.

The source made the active and inactive calls. The calls are words filed in the database; no cut-off is given here.

`CC(C)(C)c1ccc(COc2cccc(C(=O)O)c2)cc1`: the outcome in test [1] and in test [2] was inactive. Moreover, the Selectivity ratio in test [3], in test [4], in test [5], in test [6], in test [7] and in test [8] was above 30 in each case.
